Experiment: gradient 5% acetonitrile 3 min, to 50% in 2 min, to 85% in 15 min, held 3 min, 100 µL/min
Details: column: Zorbax Extend-C18 2.1 x 50 mm; eluents: water / acetonitrile, 0.1% formic acid
Method in brief: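 Mixtures of ~100 pure standards were chromatographed on a Zorbax Extend-C18 column (2.1 × 50 mm, 1.8 μm) at 100 μL/min using water and acetonitrile, each with 0.1% formic acid. Detection used a quadrupole time-of-flight mass spectrometer in positive and negative ionization mode, and data collection spanned 3 months. Retention time was obtained from adduct peaks picked computationally and each checked manually.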

RP-LC retention time | Structure (SMILES)
731 s | Cc1nn(-c2ccccc2)c(C)c1S(=O)(=O)Nc1ccc(S(N)(=O)=O)cc1
917 s | O=c1c2nnc3c(-c4ccccc4)cnn3c2ccn1CCc1c[nH]c2ccccc12
1240 s | CCOc1cc(-c2nc(C3CC(=O)N(c4ccc(Cl)cc4)C3)no2)cc(OCC)c1OCC (configuration not stated)
678 s | COc1ccccc1-c1nnc(NC(=O)c2c[nH]c3ccccc23)o1
607 s | CN1CC(=O)N(CC(=O)Nc2ccc(-c3nc4ccccc4[nH]3)cc2)c2ccccc2C1=O
786 s | Cc1cc(NC(=O)Cn2cccc2-c2nc(-c3ccc4c(c3)OCO4)no2)n[nH]1
789 s | COCCCNC(=O)c1cc(-c2ccc(OC)cc2)nc2n[nH]c(-c3ccccc3)c12
827 s | COCCNC(=O)C1CCN(c2nc3ccc(-c4ccccc4F)nc3s2)CC1
717 s | Cc1ccccc1-c1nc2cnccn2c1NCCC(=O)NCc1cccc(Cl)c1
630 s | CCn1nccc1C(=O)N1CCC2(CC1)C(=O)N(C)c1ccccc12
864 s | CCC(=O)N(C1CCOCC1)C1CCN(S(=O)(=O)c2cc(F)ccc2C)CC1
856 s | COC(=O)CCc1sc(NC2CCCCC2)nc1-c1ccc(OC)cc1
621 s | O=C(NCCCN1CCCCC1)c1ccc2c(c1)nc1n2CCN(C2CCCCC2)C1=O
965 s | CCc1nnc(-c2ccc3ccn(CC(=O)N4CCN(c5ccc(Cl)cc5)CC4)c3c2)o1
1240 s | CCOc1ccc(C(=O)Nc2nc(-c3cccc(Br)c3)cs2)cc1
732 s | Cc1noc(C)c1CCNC(=O)CCCN1C(=O)CCn2nc(-c3cn(C)c4ccccc34)cc21
605 s | c1cncc(-c2nc(-c3ccc(OC4CNC4)cc3)no2)c1
1090 s | Cc1ccc2oc(=O)n(Cc3noc(C(=O)NCCC4=CCCCC4)n3)c2c1
756 s | O=C(Oc1ccc[nH]c1=O)c1cccc(Cl)c1
732 s | COCCN1C(=O)Cc2ccccc2C1C(=O)NCc1ccccc1F (configuration not stated)
809 s | Cc1ccc(C)c(N2C(=O)CN(S(C)(=O)=O)CC2(C)C(=O)NCc2ccccc2)c1 (configuration not stated)
761 s | COc1ccc2nc(NC(=O)Cn3nc(C(=O)N4CCOCC4)c4ccccc43)sc2c1
784 s | COc1ccc(-c2noc(N3CCC(C(=O)Nc4cc(C)on4)CC3)n2)cc1OC
680 s | O=C(NCc1ccccc1Br)c1cn2c(n1)COCC2

RP-LC retention time | Structure (SMILES)
737 s | Cc1ccc(CNS(=O)(=O)c2ccc(-c3nnc(C)o3)o2)o1
722 s | COCc1nc(CCNS(=O)(=O)Cc2ccccc2)no1
875 s | CCC(C(=O)N1CCN(c2ncccn2)CC1)n1c2ccccc2c2cnn(C)c(=O)c21 (configuration not stated)
676 s | COc1cc(C2NCCc3c2[nH]c2ccccc32)ccc1OC(C)C (configuration not stated)
831 s | CCCC(=O)Nc1nc(-c2ccc3c(c2)N(C)C(=O)C(C)O3)cs1 (configuration not stated)
691 s | N#Cc1ccc(C(=O)N2CC(n3cc(COCC4CC4)nn3)C2)cc1
916 s | Cc1ccc(C(=O)N2CCC(COc3ccc(C(=O)NC(C)C)cc3)CC2)cc1C
835 s | CC(=O)N1CCc2ccccc2C1C(=O)NCc1ccc(Br)cc1 (configuration not stated)
615 s | CSc1ccccc1C(=O)N(CCN(C)C)c1nc2ccc([N+](=O)[O-])cc2s1
818 s | CC(C)NC(=O)c1ccc(OCC2CCCN(C(=O)c3cccs3)C2)cc1 (configuration not stated)
825 s | CCC(C)NC(=O)N1CCCN(C2=NS(=O)(=O)C(c3ccc(Cl)cc3)=C2C)CC1 (configuration not stated)
941 s | Cc1cc(-c2nnc(-c3ccco3)o2)c(C)n1CC(=O)Nc1ccc(F)c(Cl)c1
805 s | O=c1c2cc(-c3ccc4c(c3)OCO4)nn2ccn1Cc1nc(-c2ccc(F)c(Cl)c2)no1
595 s | COc1ccccc1CCC(=O)NCc1ccc2c(c1)ncn2C
780 s | CC1CN(C(=O)c2cc3cc([N+](=O)[O-])ccc3s2)CC(C)O1 (configuration not stated)
613 s | Cn1ncc(N2CCCC(CC(=O)O)C2)cc1=O (configuration not stated)
868 s | COc1cccc(S(=O)(=O)N2CCC([C@H]3[C@@H](OC)C(=O)N3C(C)C)CC2)c1
678 s | CN(c1ncccc1CNc1nc(Nc2ccc3c(c2)CC(=O)N3)ncc1C(F)(F)F)S(C)(=O)=O
957 s | Cc1ccccc1CNC(=O)Cn1c(C)cc(-c2nnc(-c3ccccc3)o2)c1C
653 s | CN(C)C(=O)c1n[nH]c2c1CN(C(=O)CCC(=O)c1ccc(F)cc1)CC2
712 s | O=C(NC1CC1)c1ccc(OCC2CCCN(C(=O)c3ccoc3)C2)cc1 (configuration not stated)
675 s | CCc1ccc2c(c1)-c1ccccc1S(=O)(=O)N2CC(=O)NCCCn1ccnc1
818 s | CC1(C(=O)NCc2ccccc2)CN(S(C)(=O)=O)CC(=O)N1Cc1ccccc1F (configuration not stated)

The remaining lines, values behind:

Structure (SMILES) | RP-LC retention time
O=C(c1ccc2c(c1)OCO2)N1[C@H]2CC[C@@H]1c1cnc(-c3ccccc3)nc1C2 | 914 s
CCOc1ccc(-c2noc(Cn3c(=O)n(-c4ccccc4C)c(=O)c4sccc43)n2)cc1OC | 960 s
C[C@@H](O)[C@H]1C(=O)N2C(C(=O)OCOC(=O)C(C)(C)C)=C(SC3CN(C4=NCCS4)C3)[C@H](C)[C@H]12 | 732 s
Cc1nc(C2CN(S(=O)(=O)c3cc(F)ccc3F)CC23CCOCC3)no1 (configuration not stated) | 834 s
COc1ccccc1-c1nc(-c2ccc3c(c2)ncn3CCN2CCCC2)no1 | 797 s
O=C(c1cc(-c2cccnc2)n[nH]1)N1CCN(C(=O)C2CCCC2)CC1 | 594 s
O=C(c1csc(N2CCN(c3ccc(Cl)cc3)CC2)n1)N1CCCCC1 | 1130 s
CN1C(=O)c2ccccc2Oc2ccc(C(=O)NCCCc3ccccc3)cc21 | 964 s
CCOCCCNC(=O)c1ccc2c(c1)CCCN2S(C)(=O)=O | 706 s
CCOc1ccc(CNC(=O)CN2CC=C(c3cnn(-c4ccccc4)c3)CC2)cc1 | 722 s
CCCCN1C(=O)C(C)(C(=O)Nc2ccc(C)cc2C)Oc2cccnc21 (configuration not stated) | 1090 s
O=C(NC1CCCC1)C1CCN(c2cncnc2N2CCCCC2)CC1 | 641 s
Cc1nnc(N2CCCC(C(=O)NCCc3c[nH]c4ccccc34)C2)c2nn(-c3ccccc3)c(C)c12 (configuration not stated) | 706 s
Cc1nnc(C2CCCN(C(=O)c3ccccc3Cl)C2)s1 (configuration not stated) | 652 s
COc1ccc(-c2ccc(=O)n(CCCNC(=O)c3ccc(C(F)(F)F)cc3)n2)cc1 | 824 s
Cc1noc(-c2ccc(NC(=O)COc3ccccc3F)cc2)n1 | 832 s
Cc1cc(C)cc(OCC(=O)N(Cc2ccc(Br)o2)C2CCS(=O)(=O)C2)c1 (configuration not stated) | 966 s
Cc1ccc(CCNC(=O)c2cc3n(n2)CC(C)(C(=O)NCc2ccc(F)cc2)N(C)C3=O)cc1 (configuration not stated) | 828 s
CSc1nc2nc3c(cn2n1)C(=O)CC(C)C3 (configuration not stated) | 705 s
COc1ccc(N2CCN(C(=O)Cn3cccc3-c3nnc(C4CCC4)o3)CC2)cc1 | 795 s

Structure (SMILES) | RP-LC retention time
CCNC(=O)N1CCc2c([nH]c3ccccc23)C12C(=O)N(C)c1ccccc12 (configuration not stated) | 756 s
Cc1cc(C2CCCN2C(=O)Nc2ccccc2Br)on1 (configuration not stated) | 867 s
CCn1c(=O)sc2cc(S(=O)(=O)N3CCC(C(=O)N4CCC5(CC4)OCCO5)CC3)ccc21 | 781 s
CC(C)N1C(=O)c2cccnc2Sc2cc(NC(=O)C3CCCCC3)ccc21 | 920 s
COc1ccc(NC(=O)CN2CCc3[nH]c4c(C)c(Cl)ccc4c(=O)c3C2)cc1Cl | 762 s
COc1ccc(-c2noc(Cc3nc(-c4ccc(Br)cc4)cs3)n2)cc1 | 1280 s
CCOc1ccc(CCNC(=O)C2CCCN(c3ncnc4c3nc3n4CCCCC3)C2)cc1 (configuration not stated) | 807 s
O=C(NCCc1cccs1)C1CCCN(c2nc3ccsc3c(=O)n2Cc2ccccc2)C1 (configuration not stated) | 949 s
CCn1nccc1-c1cccc(-c2noc(C3CCN(S(=O)(=O)c4ccc(C)cc4)CC3)n2)c1 | 1170 s
O=C(Nc1ccc2c(c1)OCCO2)C1CCCN(c2nccnc2Sc2ccccc2)C1 (configuration not stated) | 1030 s
CCC(C)NC(=O)CCc1c(-c2ccc(Cl)cc2)nc2ccccn12 (configuration not stated) | 653 s
O=c1c2sccc2n(Cc2nc(-c3ccc(Cl)c(F)c3)no2)c(=O)n1-c1cccc(F)c1 | 1090 s
O=C(O)CNS(=O)(=O)c1ccc(Cl)c(-c2nnc(-c3ccccc3)o2)c1 | 766 s
CCCn1ccc2sc(C)c(C(=O)NCc3ccc(OC)cc3)c2c1=O | 836 s
CCN(CC)S(=O)(=O)c1c(C)nn(C(=O)c2ccccc2OC)c1C | 951 s
O=C(c1c(F)cccc1Cl)N1CCCC(c2nnc(-c3ccccc3F)s2)C1 (configuration not stated) | 920 s
CC1Oc2ccc(-c3csc(NC(=O)c4cccnc4)n3)cc2NC1=O (configuration not stated) | 704 s
CCn1nnc2ccc(-c3noc(Cc4ccccc4C)n3)cc21 | 1030 s
CC(C)C(=O)N1[C@H]2CC[C@@H]1c1cnc(-c3ccc(F)cc3)nc1C2 | 871 s
CCCNc1cc(N2CCC(CCC(=O)N(CC)CC)CC2)ncn1 | 538 s

From the METLIN SMRT retention time set (Domingo-Almenara et al. 2019)
